Measured values as given in ChEMBL document CHEMBL5346939, “Targeting glutaminase 1 (GLS1) by small molecules for anticancer therapeutics” (Eur J Med Chem, 2023).
pIC50: −log10 of the molar value.

Experiments:
[1] = biological target: T1, Glutaminase kidney isoform, mitochondrial (Homo sapiens, UniProt O94925); assay: Inhibition of C-terminal His-tagged human recombinant KGA transformed in Escherichia coli BL21 DE3 at pH 7.4 incubated for 3 hrs
T1 sequence (O94925 whole entry): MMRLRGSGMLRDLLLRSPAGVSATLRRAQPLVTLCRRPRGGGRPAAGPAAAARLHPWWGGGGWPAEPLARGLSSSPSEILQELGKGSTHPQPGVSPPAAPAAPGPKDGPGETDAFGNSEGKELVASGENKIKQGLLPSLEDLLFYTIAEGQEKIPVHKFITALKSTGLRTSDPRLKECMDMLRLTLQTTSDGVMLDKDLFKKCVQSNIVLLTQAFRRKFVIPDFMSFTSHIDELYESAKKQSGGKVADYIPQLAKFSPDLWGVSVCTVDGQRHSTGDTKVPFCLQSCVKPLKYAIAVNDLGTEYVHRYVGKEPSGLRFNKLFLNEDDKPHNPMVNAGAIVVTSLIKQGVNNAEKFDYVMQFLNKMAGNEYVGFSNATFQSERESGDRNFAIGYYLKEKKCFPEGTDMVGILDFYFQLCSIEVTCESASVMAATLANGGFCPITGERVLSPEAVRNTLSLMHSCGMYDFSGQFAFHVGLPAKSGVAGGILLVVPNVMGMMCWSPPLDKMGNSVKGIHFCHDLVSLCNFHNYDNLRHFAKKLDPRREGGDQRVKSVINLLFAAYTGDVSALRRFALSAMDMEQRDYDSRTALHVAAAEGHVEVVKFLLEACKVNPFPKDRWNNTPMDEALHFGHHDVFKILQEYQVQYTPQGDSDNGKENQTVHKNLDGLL

[2] = Inhibition of human recombinant Glutaminase
[3] = Inhibition of N-terminal 6His-tagged recombinant rat glutaminase expressed in Escherichia coli BL-21 DE3 measured after 20 mins by colorimetric analysis
[4] = test system: SW1990; assay: Antiproliferative activity against human SW1990 cells assessed as reduction in cell viability measured after 72 hrs by CCK-8 assay; format: functional, cell-based; conditions: SW1990, 72 h
[5] = Lipophilicity, logP of the compound at pH 7.4 by HPLC analysis; format: physicochemical; conditions: buffer
[6] = Inhibition of 6His-tagged recombinant mouse GAC expressed in Escherichia coli preincubated for 10 mins and measured after 45 mins by chromatographic analysis
[7] = biological target: T1, Glutaminase kidney isoform, mitochondrial; assay: Inhibition of N-terminal His-tagged GLS1 (unknown origin) expressed in Escherichia coli BL21 (DE3) preincubated for 20 mins and measured after 2 hrs
[8] = test system: HCC1806; assay: Cytotoxicity against human HCC1806 cells assessed as reduction in cell viability measured after 48 hrs by MTT assay; format: functional, cell-based; conditions: HCC1806, 48 h
[9] = biological target: T1, Glutaminase kidney isoform, mitochondrial; assay: Inhibition of full length C terminal His-tagged human KGA expressed in Escherichia coli BL-21 DE3
[10] = Inhibition of N-terminal Histidine-tagged recombinant mouse GAC incubated for 1 hrs by fluorescence based analysis
[11] = Inhibition of full length C-terminal His-tagged rat Glutaminase expressed in Escherichia coli BL21 DE3 incubated for 12 hrs
[12] = Inhibition of human Glutaminase

Q: With `O=c1c2ccccc2[se]n1CCCCCCn1[se]c2ccccc2c1=O` as the molecule, how does the pIC50 [1] read?
A: 6.70

Q: With `CN(C)c1ccc(C2Nc3ccc4ccccc4c3C3=C2C(=O)CC(C)(C)C3)cc1Br` (stereo not drawn) as the molecule, how does the pIC50 [2] read?
A: ~5.03

Q: Which results are given for `O=C(Cc1ccccc1)Nc1nnc(CCSCCc2nnc(NC(=O)Cc3ccccc3)s2)s1`?
A: pIC50 [3]: 5.48; pIC50 [4]: 4.45; logP [5]: 3.73

Q: With `O=C(Cc1cccc(OC(F)(F)F)c1)Nc1ccc(CCCCc2nnc(NC(=O)Cc3ccccn3)s2)nn1` as the molecule, how does the pIC50 [4] read?
A: 4.88

Q: And the logP [5]?
A: 2.72

Q: With `CN(C)c1ccc(C2Nc3ccc4ccccc4c3C3=C2C(=O)CC(C)(C)C3)cc1` (stereo not drawn) as the molecule, how does the pIC50 [6] read?
A: ~4.30

Q: With `CC(C)c1ccc(C2Nc3ccc4ccccc4c3C3=C2C(=O)CC(C)(C)C3)cc1` (stereo not drawn) as the molecule, how does the pIC50 [6] read?
A: ~4.70

Q: With `CC1(C)CC(=O)C2=C(C1)c1c(ccc3ccccc13)NC2c1ccc(C(C)(C)C)cc1` (stereo not drawn) as the molecule, how does the pIC50 [6] read?
A: ~5.00

Q: With `O=C(Cc1ccccc1)Nc1nnc([C@@H]2CCC[C@@H](c3nnc(NC(=O)Cc4ccccc4)s3)C2)s1` as the molecule, how does the pIC50 [7] read?
A: 7.00

Q: Which results are given for `C=C1CC[C@]2(C(=O)O[C@@H]3O[C@H](CO[C@@H]4O[C@H](CO)[C@@H](O)[C@H](O)[C@H]4O)[C@@H](O)[C@H](O)[C@H]3O)CC[C@]3(C)C(=CCC4[C@@]5(C)CC[C@H](O[C@@H]6OC[C@H](O[C@@H]7OC[C@H](O)[C@H](O)[C@H]7O[C@@H]7O[C@@H](C)[C@H](O)[C@@H](O)[C@H]7O)[C@H](O)[C@H]6O)C(C)(C)C5CC[C@]43C)C2C1` (stereo partly drawn)?
A: pIC50 [8]: 4.60; pIC50 [9]: 5.21

Q: With `CN(C)c1ccc(C2Nc3ccc4cc(C(C)(C)C)ccc4c3C3=C2C(=O)CC(C)(C)C3)cc1Br` (stereo not drawn) as the molecule, how does the pIC50 [10] read?
A: 5.35

Q: With `CC1(C)CCc2c(ccc3c2O[C@@H]2c4ccc(O)cc4O[C@H]3[C@H]2O)O1` as the molecule, how does the pIC50 [11] read?
A: 4.44

Q: With `CN1CCc2cccc3c2[C@H]1Cc1ccc(O)c(O)c1-3` [APOMORPHINE] as the molecule, how does the pIC50 [12] read?
A: 6.22

Q: With `COc1ccc2c(c[n+](C)c3c4cc5c(cc4ccc23)OCO5)c1OC` [CHELERYTHRINE CHLORIDE] as the molecule, how does the pIC50 [12] read?
A: 7.52

Q: With `O=c1c2ccccc2[se]n1-c1ccccc1` [EBSELEN] as the molecule, how does the pIC50 [12] read?
A: 8.05
